Drawing on PubChem BioAssay AID248 (DTP/NCI, 2004), this text covers T/C for 19 molecules.

Several values for one entry are separate records, joined by “and”; a condition that tells them apart may be missing. Identical values can stand only once. Inconclusive results and toxic doses are left out.

The subject of the test is L1210 leukemia ip in BDF1 mice, survival T/C. Nature of the test: NCI In Vivo Anticancer Drug Screen. Data for tumor model L1210 Leukemia (intraperitoneal) in B6D2F1 (BDF1) mice. As to conditions: endpoint: mean survival time, higher = longer survival. An outline of the steps:
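Transplanted-tumor mice were given test agent; controls received vehicle only. Survival readings from the two groups were divided (treated over control).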

Where [1] appears, read: dose: 100.0 mg/kg/injection, schedule: Q01DX001 (ip), vehicle: carboxymethylcellulose (CMC).
[2] abbreviates: dose: 100.0 mg/kg/injection, schedule: Q04DX003 (ip), vehicle: carboxymethylcellulose (CMC).
Where [3] appears, read: dose: 200.0 mg/kg/injection, schedule: Q01DX001 (ip), vehicle: carboxymethylcellulose (CMC).
The mark [4] stands for this setting: dose: 200.0 mg/kg/injection, schedule: Q04DX003 (ip), vehicle: carboxymethylcellulose (CMC).
Where [5] appears, read: dose: 400.0 mg/kg/injection, schedule: Q04DX003 (ip), vehicle: carboxymethylcellulose (CMC).
Setting [6] is: dose: 25.0 mg/kg/injection, schedule: Q01DX009 (ip), vehicle: saline with Tween-80.
Where [7] appears, read: dose: 50.0 mg/kg/injection, schedule: Q01DX009 (ip), vehicle: saline with Tween-80.
Setting [8] is: dose: 100.0 mg/kg/injection, schedule: Q01DX009 (ip), vehicle: saline with Tween-80.
The mark [9] stands for this setting: dose: 100.0 mg/kg/injection, schedule: Q04DX003 (ip), vehicle: saline.
The mark [10] stands for this setting: dose: 100.0 mg/kg/injection, schedule: Q01DX009 (ip), vehicle: saline.
[11] abbreviates: dose: 200.0 mg/kg/injection, schedule: Q01DX009 (ip), vehicle: saline.
[12] abbreviates: dose: 400.0 mg/kg/injection, schedule: Q01DX009 (ip), vehicle: saline.
The mark [13] stands for this setting: dose: 100.0 mg/kg/injection, schedule: Q01DX001 (ip), vehicle: other.
[14] abbreviates: dose: 200.0 mg/kg/injection, schedule: Q01DX001 (ip), vehicle: other.
Setting [15] is: dose: 400.0 mg/kg/injection, schedule: Q01DX001 (ip), vehicle: other.
Where [16] appears, read: dose: 200.0 mg/kg/injection, schedule: Q01DX009 (ip), vehicle: saline with Tween-80.
Setting [17] is: dose: 400.0 mg/kg/injection, schedule: Q01DX009 (ip), vehicle: saline with Tween-80.

Turning to `CC(C)N(C(=O)Nc1cc(C(F)(F)F)ccc1Cl)C1CCCCC1`, the T/C runs as follows: under setting [1], 95 % of control; (dose: 100.0 mg/kg/injection, schedule: Q01DX009 (ip), vehicle: carboxymethylcellulose (CMC)) 92 % of control and 88 % of control; (dose: 100.0 mg/kg/injection, schedule: Q04DX002 (ip), vehicle: carboxymethylcellulose (CMC)) 97 % of control; under setting [2], 96 % of control; under setting [3], 90 % of control; (dose: 200.0 mg/kg/injection, schedule: Q01DX009 (ip), vehicle: carboxymethylcellulose (CMC)) 93 % of control and 100 % of control. For the same molecule, the T/C is, setting by setting: (dose: 200.0 mg/kg/injection, schedule: Q04DX002 (ip), vehicle: carboxymethylcellulose (CMC)) 98 % of control and 108 % of control; under setting [4], 96 % of control; (dose: 400.0 mg/kg/injection, schedule: Q01DX001 (ip), vehicle: carboxymethylcellulose (CMC)) 93 % of control; (dose: 400.0 mg/kg/injection, schedule: Q01DX009 (ip), vehicle: carboxymethylcellulose (CMC)) 95 % of control; (dose: 400.0 mg/kg/injection, schedule: Q04DX002 (ip), vehicle: carboxymethylcellulose (CMC)) 87 % of control and 90 % of control; under setting [5], 91 % of control.
`COc1ccc(OC)c(CCN)c1`: the T/C was 98 % of control under setting [6], 105 % of control under setting [7], 104 % of control under setting [8] and 107 % of control under setting [9].
With `CCn1ccc(=O)c2cc([N+](=O)[O-])ccc21`, the T/C (dose: 100.0 mg/kg/injection, schedule: Q01DX009 (ip), vehicle: Klucel (hydroxypropylcellulose) (HPC)) is 95 % of control; the T/C (dose: 100.0 mg/kg/injection, schedule: Q04DX003 (ip), vehicle: Klucel (hydroxypropylcellulose) (HPC)) was 92 % of control; the T/C (dose: 200.0 mg/kg/injection, schedule: Q01DX009 (ip), vehicle: Klucel (hydroxypropylcellulose) (HPC)) was 103 % of control; the T/C (dose: 200.0 mg/kg/injection, schedule: Q04DX003 (ip), vehicle: Klucel (hydroxypropylcellulose) (HPC)) is 92 % of control; the T/C (dose: 400.0 mg/kg/injection, schedule: Q01DX009 (ip), vehicle: Klucel (hydroxypropylcellulose) (HPC)) was 92 % of control; the T/C (dose: 400.0 mg/kg/injection, schedule: Q04DX003 (ip), vehicle: Klucel (hydroxypropylcellulose) (HPC)) was 91 % of control.
On to `CCCCCCCCCCCCCCCC[n+]1cccc(C(=O)NCO)c1`, for which the T/C runs as follows: under setting [1], 93 % of control; under setting [3], 102 % of control.
On to `O=C1c2cccc3cc([N+](=O)[O-])cc(c23)C(=O)N1Cc1cccnc1`, for which the T/C is, setting by setting: under setting [2], 93 % of control; under setting [4], 90 % of control; under setting [5], 97 % of control.
In the case of `CCOC(=O)C(CO)(CO)C(=O)OCC`, the T/C under setting [10] is 106 % of control, the T/C under setting [11] was 92 % of control and the T/C under setting [12] was 100 % of control.
For `O=C(OCCCCOC(=O)c1cccc([N+](=O)[O-])c1)c1cccc([N+](=O)[O-])c1`, the T/C reads like this: (dose: 3.12 mg/kg/injection, schedule: Q01DX009 (ip), vehicle: saline with Tween-80) 95 % of control; (dose: 6.25 mg/kg/injection, schedule: Q01DX009 (ip), vehicle: saline with Tween-80) 100 % of control; (dose: 12.5 mg/kg/injection, schedule: Q01DX009 (ip), vehicle: saline with Tween-80) 97 % of control; under setting [13], 102 % of control; under setting [14], 95 % of control; under setting [15], 93 % of control.
For the molecule `CCC1C(=O)CCN(C)C1c1cc2ccccc2[nH]1` (stereo not drawn), the T/C by setting is: under setting [1], 105 % of control; under setting [3], 91 % of control.
On to `Cc1ccccc1OS(=O)(=O)c1cccc([N+](=O)[O-])c1`, for which the T/C under setting [8] was 93 % of control, the T/C under setting [16] is 92 % of control and the T/C under setting [17] is 90 % of control.
Regarding `CON1C(=O)c2ccccc2S1=O` (stereo not drawn), the T/C is 96 % of control (dose: 100.0 mg/kg/injection, schedule: Q04DX002 (ip), vehicle: Klucel (hydroxypropylcellulose) (HPC)) and 92 % of control (dose: 200.0 mg/kg/injection, schedule: Q04DX002 (ip), vehicle: Klucel (hydroxypropylcellulose) (HPC)).
In the case of `COC(=O)CCC(NC(=O)c1ccc(NCc2cnc3nc(N)n(C)c(=O)c3n2)cc1)C(=O)OC` (stereo not drawn), the T/C runs as follows: (dose: 100.0 mg/kg/injection, schedule: Q01DX001 (ip), vehicle: saline with Tween-80) 106 % of control; (dose: 200.0 mg/kg/injection, schedule: Q01DX001 (ip), vehicle: saline with Tween-80) 104 % of control; (dose: 400.0 mg/kg/injection, schedule: Q01DX001 (ip), vehicle: saline with Tween-80) 101 % of control.
Regarding `O=C1C(N2CC2)=C(N2CCCC(O)C2)C(=O)C(N2CC2)=C1N1CCCC(O)C1` (stereo not drawn), the T/C reads like this: (dose: 0.12 mg/kg/injection, schedule: Q04DX003 (ip), vehicle: saline) 103 % of control; (dose: 0.25 mg/kg/injection, schedule: Q04DX003 (ip), vehicle: saline) 111 % of control; (dose: 0.37 mg/kg/injection, schedule: Q01DX001 (ip), vehicle: saline) 98 % of control; (dose: 0.37 mg/kg/injection, schedule: Q01DX009 (ip), vehicle: saline) 102 % of control and 103 % of control; (dose: 0.5 mg/kg/injection, schedule: Q04DX003 (ip), vehicle: saline) 123 % of control; (dose: 0.75 mg/kg/injection, schedule: Q01DX001 (ip), vehicle: saline) 108 % of control. Besides, the T/C is 96 % of control (dose: 0.75 mg/kg/injection, schedule: Q01DX009 (ip), vehicle: saline); 105 % of control (dose: 1.5 mg/kg/injection, schedule: Q01DX001 (ip), vehicle: saline); 124 % of control (dose: 1.5 mg/kg/injection, schedule: Q01DX009 (ip), vehicle: saline); 168 % of control (dose: 2.0 mg/kg/injection, schedule: Q04DX003 (ip), vehicle: saline); 102 % of control (dose: 3.0 mg/kg/injection, schedule: Q01DX001 (ip), vehicle: saline); 159 % of control (dose: 3.0 mg/kg/injection, schedule: Q01DX009 (ip), vehicle: saline). The T/C (dose: 4.0 mg/kg/injection, schedule: Q04DX003 (ip), vehicle: saline) was 156 % of control and 184 % of control; the T/C (dose: 6.0 mg/kg/injection, schedule: Q04DX003 (ip), vehicle: saline) is 204 % of control.
With `O=C(O)/C=C/C(=O)NCc1ccco1`, the T/C is, setting by setting: under setting [8], 98 % of control; under setting [16], 96 % of control; under setting [17], 101 % of control.
As for `CCCC(C(=O)O)C1=CCCC1` (stereo not drawn), the T/C by setting is: under setting [8], 88 % of control; under setting [9], 98 % of control; (dose: 200.0 mg/kg/injection, schedule: Q04DX003 (ip), vehicle: saline) 103 % of control; (dose: 400.0 mg/kg/injection, schedule: Q04DX003 (ip), vehicle: saline) 101 % of control.
Regarding `O=C(NN1CCOCC1)c1ccc([N+](=O)[O-])s1`, the T/C reads like this: (dose: 50.0 mg/kg/injection, schedule: Q01DX005 (ip), vehicle: saline) 98 % of control; (dose: 100.0 mg/kg/injection, schedule: Q01DX005 (ip), vehicle: saline) 102 % of control; (dose: 200.0 mg/kg/injection, schedule: Q01DX005 (ip), vehicle: saline) 98 % of control.
For `COC(=O)c1ccc(Cl)c(Cl)c1`, the T/C under setting [6] was 110 % of control; the T/C under setting [7] is 104 % of control; the T/C under setting [8] is 107 % of control; the T/C under setting [16] was 100 % of control; the T/C under setting [17] is 102 % of control.
Turning to `FC(F)(F)c1cccc(P(c2cccc(C(F)(F)F)c2)c2ccccc2C(F)(F)F)c1`, the T/C runs as follows: (dose: 100.0 mg/kg/injection, schedule: Q04DX003 (ip), vehicle: saline with Tween-80) 95 % of control; (dose: 400.0 mg/kg/injection, schedule: Q04DX003 (ip), vehicle: saline with Tween-80) 87 % of control.
For `O=C(O)c1ccc2c(c1Nc1ccccc1)C(=O)c1ccccc1C2=O`, the T/C was 106 % of control under setting [10], 94 % of control under setting [11] and 94 % of control under setting [12].
Take `c1ccc(C2=NNC(c3ccccc3)(c3ccccc3)c3ccccc32)cc1`: the T/C under setting [13] was 96 % of control, the T/C under setting [14] was 90 % of control and the T/C under setting [15] is 95 % of control.
